Measurements reported in patent US7569354B2, “Cellomics system” (OnChip Cellomics Consortium, priority 2004, dated 2009).

Tests used:
[1] = test system: blood from a patient suffering from leukemia; experiment: separation of cells causing leukemia by intake of labeled amino acids; format: cell-based, human
Description: Descriptions are provided below for a case in which cells causing leukemia are separated by applying the technique in Example 3 for cell separation. NDB folic acid (Ex465/Em540), 4,4-difluoro-1,3,5,7-tetramethyl-4-bora-3a,4a-diaza-s-indacene-8-propionate labeled ASn, and 4,4-difluoro-5-(2-pyrrole)-4-bora-3a,4a-diaza-s-indacene-3-propionate labeled Thr are added to blood from a patient suffering from leukemia, and the mixture is incubated for 30 minutes at 37° C. Using the NDB folic acid (Ex465/Em540) as a control, the amounts of intaked 4,4-difluoro-3,5,7-tetramethyl-4-bora-3a,4a-diaza-s-indacene-8-propionate labeled ASn (Ex493/Em503) and intaked 4,4-difluoro-5-(2-pyrrole)-4-bora-3a,4a-diaza-s-indacene-3-propionate labeled Thr are measured by detecting the fluorescent intensities of various derivatives of 4,4-difluoro-4-bora-3a,4a-diaza-s-indacene against the fluorescence intensity generated by NDB-labeled folic acid, and cells having high fluorescence intensity with the fluorescence wavelength of around 503 nm, namely cells having a large intake amount of the 4,4-difluoro-1,3,5,7-tetramethyl-4-bora-3a,4a-diaza-s-indacene-8-propionate labeled ASn are sorted with a cell sorter.

[2] = test system: cells from a lever tissue; experiment: cell separation by cell permeability of NBD-labeled sugars, lever tissue cells; format: cell-based
[3] = test system: cells from brain tissue pieces; experiment: cell separation by cell permeability of NBD-labeled sugars, brain-derived cells; format: cell-based; details: 15 minutes at 37° C., 200 cells processed
Text: In Example 2 for cell separation, a case is described in which differences of cells are recognized by measuring differences in cell permeability of a plurality of substrates and then discrete cells are separated. In this example, cells are identified and separated by observing the cell permeability of galactose or fructose against the glucose described in the aforementioned document. Generally, glucose is often used as an energy source for cells, but galactose or fructose is not directly consumed. For instance, when Escherichia coli is cultured in a mixed culture medium of glucose and fructose, glucose is consumed at first, and then […] is consumed when glucose decreases. Therefore, for instance, by measuring cell permeability of various types of substrates using a quantity of intaked glucose as control data, cell separation reflecting the state of cell more accurately can be performed.
In this example, a glucose labeling derivative of 6-(N-(7-nitrobenz-2-oxa-1.3-diazol-4-yl)amino) sugar (Ex465/Em540) (NBD-labeled sugar) is used. […] The culture fluid is exchanged with that not containing the NBD-labeled sugar, and the sample is immediately added to a cell sorter independently developed by the inventors, and cells with the relative fluorescence intensity of 500 or more are separated.

[4] = test system: neurocyte / pulsating myocardial cell; details: added to culture fluid of the neurocyte side only
Description: In Example 3, examination is made for whether a beat cycle of the pulsating myocardial cell 2-1 kept in the cell holding zone 2 changes when potassium or glucose, or suspected endocrine disrupter is added to the culture fluid of the neurocyte 3-2 in the cell holding zone 3, or the content is increased.
At first, the same culture fluid is filled in the culture fluid baths 21-1, 21-2, and a beat cycle of the pulsating myocardial cell 2-1 is checked to obtain a myocardial pulsation pattern showing the substantially same cycle as shown in FIG. 49(A).

## 4,4-difluoro-1,3,5,7-tetramethyl-4-bora-3a,4a-diaza-s-indacene-8-propionate labeled ASn
[1]; 30 minutes at 37° C., fluorescence around 503 nm, NDB folic acid as control
  cancerous leukocytes among the sorted cells with large intake, histological examination: ≥ 95%

## 4,4-difluoro-5-(2-pyrrole)-4-bora-3a,4a-diaza-s-indacene-3-propionate labeled Thr
[1]; compared to labeled Asn
  intake rate in normal cells against cancer cells: not so remarkable

## O=[N+]([O-])c1ccc(NCC2OC(O)C(O)C(O)[C@@H]2O)c2nonc12 (some centres unmarked) [NBD-labeled glucose]
[2]
  cells obtained with the relative fluorescence intensity of 500 or more: 46 cells
[3]
  cells obtained with the relative fluorescence intensity of 500 or more: 66 cells

## NCCc1ccc(O)c(O)c1 [dopamine, 2-dihydroxyphenylethylamine]
[4]
  beat cycle of the pulsating myocardial cell: disturbance in the beat cycle
